According to patent US8618074B2, “GPCR enhanced neuroprotection to treat brain injury” (Board of Regents of the University of Texas System, priority 2007, dated 2013):
Blank lines part the entries; values can stand above or below the compound they belong to.

How the values were obtained:
astrocytes [1] = assay: Astrocyte survival under t-buOOH oxidative stress in the absence of neurons; type: cell-based, mouse
Protocol: To determine whether P2Y-R enhanced mitochondrial metabolism in astrocytes affected neuronal resistance to oxidative stress, we prepared co-cultures of neurons and astrocytes using corning transwell-clear permeable supports, which physically separates the two cell-types by ˜1 mm (# 07-200-170, Fisher scientific). Primary cultures of astrocytes were directly prepared in transwell supports until they were ˜70% confluent. Mouse cortical neurons were then cultured onto glass bottom mattek plates and maintained in B-27/Neurobasal Medium to control glia contamination to less than 0.5% (Invitrogen). After four days, co-cultures were treated with t-buOOH (100 μM) for 4 hours with and without pre-stimulation of ATP (2 μM, 10 minutes). Cells were then stained with the DNA intercalating dye Hoechst 33342 (10 μg/ml, Molecular Probes, #H-3570) and calcein AM (2 μM, Molecular Probes, #C3100). […] We then tested the neuroprotective affects of isoform specific purinergic ligands 2-MeSADP(P2Y1-R) and UTP(P2Y2-R). FIG. 6A depicts histogram plots of the percentage of neurons alive when cocultured with young or old astrocytes. FIG. 6B depicts histogram plots of the percentage of neurons alive pretreated with either 2-MeSADP (2 μM) or UTP (50 μM) for 10 min. A ten-minute pre-treatment of astrocytes with either 2-MeSADP (2 μM), or UTP (50 μM) was equally protective against oxidative stress induced cell death. The % neurons alive after 4.5 hours of t-buOOH treatment was 51±4% (n=1664 neurons, pooled from 4 experiments) for untreated controls, 70±2% (n=2541 neurons, pooled from 4 experiments) for 2-MeSADP and 71±3% (n=1189 neurons, pooled from 4 experiments) for UTP treated co-cultures. […] The % astrocytes alive after 4.5 hours of t-buOOH treatment, in the absence of neurons, was 60±4% (n=294 cells) for control, 77±4% (n=294) for 2-MeSADP and 79±3% (n=333) for UTP treated astrocytes.
It should be noted that stimulation of neuroprotective response in astrocytes is not restricted to signaling through P2Y receptors. For example we have shown that administration of the membrane permeable IP3 analog, IP3BM, is capable of protecting astrocytes from oxidative damage. Thus, it appears possible that any stimulus capable of evoking IP3-mediated calcium release in astrocytes is equally suitable for application in the present treatment methods. To test this possibility, astrocyte cultures subjected to oxidative stress were treated with either 2-MeSADP, or the metabotropic glutamate receptor agonist (1 S, 3 R)-1-aminocyclopentane-1,3-dicarboxylic acid (ACPD), or were left untreated.
To directly examine the role of IP3 gated Ca^2+ release in P2Y-R enhanced astrocyte protection, we used a membrane permeant butyryloxymethyl ester of IP3 (IP3-BM). Cultures of astrocytes were exposed to IP3-BM and Ca^2+ levels were assessed using 2-photon imaging of Fura 2. Ca^2+ increases in response to IP3-BM application were easily detected, but they occurred over a much slower time course than those initiated by ATP treatment. This was not unexpected because of the slow process of IP3-BM movement across the lipid bilayer as well as the time needed to cleave the ester and accumulate IP3 in the cell. Because of the slower time course, we pretreated astrocytes for 20 minutes prior to exposing them to the oxidant stress t-BuOOH. […] The protective effect of IP3-BM treatment was blocked by the IP3R inhibitor, XeC. […]

astrocytes [2] = assay: Intracellular ATP determination (luciferin-luciferase); type: cell-based, mouse
Protocol: Intracellular ATP was measured using a luciferin-luciferase kit (Invitrogen, #22066). Plated astrocytes were trypsinized and washed 3× with PBS buffer (GIBCO #14190). An aliquot of cells was set aside to measure the cell density with a hemocytometer. The cells were then suspended in a lysate buffer (4 mM EDTA and 100 mM Tris, pH 7.75) and immediately heated to 100° C. for 5 minutes to minimize enzymatic changes in ATP levels. The supernatant was collected after a 10,000 g centrifugation for 1 minute and used with the luciferin/luciferase kit according to the manufacturer's instructions. Luminescence was measured with a Synergy™ HT Multi-Detection Microplate Reader (BioTek). ATP levels were normalized by cell density.
Our next approach to investigate the role of mitochondrial metabolism was to directly measure ATP levels in cultures astrocytes using a luciferin-luciferase assay (Invitrogen). Astrocytes were cultured as described above, trypsinized and washed with buffer. The cells were then suspended in a lysate buffer and immediately heated to 100° C. (5 min) to minimize enzymatic changes in ATP levels. After centrifugation, the ATP dependent luminescence of supernatant was measured with a microplate reader (Biotek). FIG. 5C depicts histograms of the direct measurement of intracellular ATP levels relative to untreated cells (control), P2Y-R stimulated (MeADP), then the same measurements in the presence of oligomycin (oligo) or ruthenium 360 (Ru360). We estimated that the resting intracellular ATP concentration in cultured astrocytes was 0.31±0.14 μM ATP/10^4 cells (n=3). […] Finally, we tested whether ruthenium 360 (Ru360; Calbiochem), a polycation that inhibits the electrogenic mitochondrial Ca^2+ uniporter, affected mitochondrial ATP production.

Mouse cortical neurons = assay: Neuronal survival in transwell co-culture with astrocytes under t-buOOH oxidative stress (Hoechst/calcein); type: cell-based; conditions: co-cultures; 10 min pre-treatment 2-MeSADP 2 μM or UTP 50 μM; 4.5 hours of t-buOOH
Protocol: Primary cultures of astrocytes were prepared as previously published (Lin et al., 2005). C57BL/6 male mice were purchased from the National Institute of Aging and maintained in standard accredited housing conditions at the University of Texas Health Science Center Animal Facility. Animal protocols were approved by our Institutional Animal Care Use Committee. Astrocytes were cultured in DMEM F-12 media (Invitrogen, # 11039-021) supplemented with 2 mM glutamine, nonessential amino acids, 10% fetal calf serum, 100 U/ml penicillin/streptomycin (Cambrex BioScience Walkersville, #17-602E) and 1% fungizone (Invitrogen, #15290-018) at 37° C. in an atmosphere containing 5% CO2. The culture medium was changed every 3-5 days. Confluent cells were gently removed by a trypsin EDTA solution and re-plated on 35 mm glass bottom chambers (Bioptechs #04200415C) prior to imaging experiments 3-4 days later. Cells were maintained in plastic culture flasks until the final re-seeding of cells onto a glass bottom chamber and were passed up to 3 times for astrocyte only experiments. For co-culture experiments with neurons, primary astrocytes were plated directly onto corning transwell-clear permeable supports, which physically separates the two cell-types by ˜1 mm (# 07-200-170, Fisher scientific). Astrocytes were cultured in transwells until they were ˜70% confluent. Mouse cortical neurons (Cambrex Bio Science Walkersville Inc., # M-CX-300) were then cultured onto 6 well mat-tek glass bottom plates and maintained in Neurobasal Medium (Invitrogen, # 21103-049), 2 mM L-Glutamine (Cambrex BioScience Walkersville, #17-605E), 100 U/ml penicillin/streptomycin (Cambrex BioScience Walkersville, #17-602E) and B-27 with (Invitrogen, #17504-044) and without antioxidants (Invitrogen, #10889-038), which controls glia contamination to less than 0.5%. The transwell supports with cultured astrocytes were placed in the neuron seeded glass bottom chambers for four days before imaging and both cell types were then maintained in neuronal media. For neuron only experiments, the astrocytes on the transwell supports were removed prior to treatments and imaging.
Sensitivity of neurons to oxidative stress was assessed by treating cultures with 100 μM tert-butyl hydrogen peroxide (t-BuOOH, Sigma, #B-2633) for 3 hours. Neurons were then stained with Hoechst 33342 (10 μg/ml, Molecular Probes, #H-3570) to label all cell nuclei and calcein AM (2 μM, #C3100, Molecular Probes, #C3100). […] Calcein fluorescence is only observed in live cells that have maintained their plasma membrane integrity. Images were acquired on an inverted Nikon TE300 microscope with a Hamamatsu ORCAER camera and Open lab software (Improvision).
To determine whether P2Y-R enhanced mitochondrial metabolism in astrocytes affected neuronal resistance to oxidative stress, we prepared co-cultures of neurons and astrocytes using corning transwell-clear permeable supports, which physically separates the two cell-types by ˜1 mm (# 07-200-170, Fisher scientific). Primary cultures of astrocytes were directly prepared in transwell supports until they were ˜70% confluent. Mouse cortical neurons were then cultured onto glass bottom mattek plates and maintained in B-27/Neurobasal Medium to control glia contamination to less than 0.5% (Invitrogen). After four days, co-cultures were treated with t-buOOH (100 μM) for 4 hours with and without pre-stimulation of ATP (2 μM, 10 minutes). Cells were then stained with the DNA intercalating dye Hoechst 33342 (10 μg/ml, Molecular Probes, #H-3570) and calcein AM (2 μM, Molecular Probes, #C3100). […] We then tested the neuroprotective affects of isoform specific purinergic ligands 2-MeSADP(P2Y1-R) and UTP(P2Y2-R). FIG. 6A depicts histogram plots of the percentage of neurons alive when cocultured with young or old astrocytes. FIG. 6B depicts histogram plots of the percentage of neurons alive pretreated with either 2-MeSADP (2 μM) or UTP (50 μM) for 10 min. […]

Compound: N[C@@]1(C(=O)O)CC[C@@H](C(=O)O)C1 [ACPD, (1 S, 3 R)-1-aminocyclopentane-1,3-dicarboxylic acid]
% of astrocytes alive (astrocytes [1]; 10 minutes pretreatment, 4 hours of t-BuOOH, mean+SD): 66+9%
astrocyte resistance to oxidative stress (astrocytes [1]; astrocyte cultures subjected to oxidative stress, versus untreated): enhanced

effect on ability of 2-MeSADP to increase ATP levels (astrocytes [2]; Ru360 1 μM 30 min + 2-MeSADP): completely blocked
basal ATP levels, % of control values (astrocytes [2]; Ru360 1 μM, 30 min): 60.5%±10.5 % of control
Compound: ruthenium 360 [Ru360]

Compound: O=c1ccn([C@@H]2O[C@H](COP(=O)(O)OP(=O)(O)OP(=O)(O)O)[C@@H](O)[C@H]2O)c(=O)[nH]1 [UTP, uridine 5′-triphosphate]
% neurons alive (Mouse cortical neurons): 71±3%
% astrocytes alive (astrocytes [1]; absence of neurons, 4.5 hours of t-buOOH, 2-MeSADP or UTP): 79±3%
